The record followed here is patent US9962369B2, “Methods and compositions for transdermal delivery” (SPRAYABLE HOLDINGS, INC., priority 2014, dated 2018).

In the data set the test system is human skin tissue. Nature of the data set: Penetration rate of AI compound in AI-helper composition through human skin in vitro, modified Franz cells. Format: in vitro ADME. The conditions noted are these: for Skin penetration rate of Al compound: Al compound 0.5% w/v; for Skin penetration rate of Al compound / Skin penetration rate of AI compound: 25 °C; for Skin penetration rate of lipoic acid: alpha-lipoic acid 0.5% w/v, Tyrosine isopropyl ester•HA 6% w/v, 20° C. As for the experimental part:
Penetration rate of AI compound in the AI-helper composition through human skin were measured in vitro by modified Franz cells. A Franz cell had two chambers: the top sample chamber and the bottom receiving chamber. The human skin tissue (450-500 μm thick) that separated the top and the receiving chambers was isolated from the anterior or posterior thigh areas.

Setting [1] is: 2-(Diethylamino)ethyl 2-(4-isobutylphenyl)propionate hydrochloride 6% w/v, water.
[2] abbreviates: D-Phenylalanine isopropyl ester hydrochloride 6% w/v, water.
The mark [3] stands for this setting: Dialkylaminoalkyl 2-(4-isobutylphenyl)propionate: None.
The mark [4] stands for this setting: L-Phenylalanine isopropyl ester hydrochloride 6% w/v, water.
Setting [5] is: no isoleucine ester (None), AI compound 0.5 % w/v in water.
The mark [6] stands for this setting: no leucine ester (None), AI compound 0.5 % w/v in water.
[7] abbreviates: no tryptophan ester (None), AI compound 0.5 % w/v in water.
The mark [8] stands for this setting: with D-isoleucine isopropyl ester hydrochloride 6 % w/v in water, AI compound 0.5 % w/v.
The mark [9] stands for this setting: with D-leucine isopropyl ester hydrochloride 6 % w/v in water, AI compound 0.5 % w/v.
[10] abbreviates: with D-tryptophan isopropyl ester hydrochloride 6 % w/v in water, AI compound 0.5 % w/v.
Where [11] appears, read: with L-isoleucine isopropyl ester hydrochloride 6 % w/v in water, AI compound 0.5 % w/v.
The mark [12] stands for this setting: with L-leucine isopropyl ester hydrochloride 6 % w/v in water, AI compound 0.5 % w/v.
The mark [13] stands for this setting: with L-tryptophan isopropyl ester hydrochloride 6 % w/v in water, AI compound 0.5 % w/v.

On to `Nc1nc2ncc(CNc3ccc(C(=O)N[C@@H](CCC(=O)O)C(=O)O)cc3)nc2c(=O)[nH]1` [Folic acid], for which the “Skin penetration rate of Al compound” value came out at 6.235 ± 1.356 μg/cm^2/h under setting [1]; 6.771 ± 2.872 μg/cm^2/h under setting [2]; 0.012 ± 0.007 μg/cm^2/h under setting [3]; 6.757 ± 3.012 μg/cm^2/h under setting [4]; 0.012 ± 0.007 μg/cm^2/h (Phenylalanine ester: None). For the same molecule, the “Skin penetration rate of AI compound” value is listed as 0.012 ± 0.007 μg/cm^2/h under setting [5]; 0.007 ± 0.012 μg/cm^2/h under setting [6]; 0.009 ± 0.011 μg/cm^2/h under setting [7]; 5.598 ± 2.812 μg/cm^2/h under setting [8]; 5.523 ± 3.012 μg/cm^2/h under setting [9]; 6.725 ± 3.327 μg/cm^2/h under setting [10]. The “Skin penetration rate of AI compound” value runs as follows: under setting [11], 5.793 ± 3.116 μg/cm^2/h; under setting [12], 5.786 ± 3.162 μg/cm^2/h; under setting [13], 6.915 ± 3.452 μg/cm^2/h.

Take `NCCS(=O)(=O)O` [Taurine]: the “Skin penetration rate of Al compound” value under setting [1] was 8.711 ± 1.871 μg/cm^2/h; the “Skin penetration rate of Al compound” value under setting [2] was determined as 8.339 ± 2.178 μg/cm^2/h; the “Skin penetration rate of Al compound” value under setting [3] came to 0.012 ± 0.006 μg/cm^2/h; the “Skin penetration rate of Al compound” value under setting [4] stood at 8.372 ± 2.237 μg/cm^2/h; the “Skin penetration rate of Al compound” value (Phenylalanine ester: None) was determined as 0.011 ± 0.006 μg/cm^2/h. The “Skin penetration rate of AI compound” value is, setting by setting: under setting [5], 0.009 ± 0.007 μg/cm^2/h; under setting [6], 0.008 ± 0.009 μg/cm^2/h; under setting [7], 0.005 ± 0.008 μg/cm^2/h; under setting [8], 7.521 ± 2.312 μg/cm^2/h; under setting [9], 7.231 ± 2.386 μg/cm^2/h; under setting [10], 9.131 ± 2.321 μg/cm^2/h. The “Skin penetration rate of AI compound” value is, setting by setting: under setting [11], 7.247 ± 2.076 μg/cm^2/h; under setting [12], 7.175 ± 2.257 μg/cm^2/h; under setting [13], 9.172 ± 2.117 μg/cm^2/h.

In the case of `Oc1ccc(C=Cc2cc(O)cc(O)c2)cc1` [Resveratrol], the “Skin penetration rate of Al compound” value by setting is: under setting [1], 18.568 ± 3.112 μg/cm^2/h; under setting [2], 18.745 ± 3.112 μg/cm^2/h; under setting [3], 0.015 ± 0.011 μg/cm^2/h; under setting [4], 18.978 ± 2.135 μg/cm^2/h; (Phenylalanine ester: None) 0.015 ± 0.011 μg/cm^2/h. The “Skin penetration rate of AI compound” value reads like this: under setting [5], 0.016 ± 0.010 μg/cm^2/h; under setting [6], 0.013 ± 0.011 μg/cm^2/h; under setting [7], 0.017 ± 0.021 μg/cm^2/h; under setting [9], 16.028 ± 2.862 μg/cm^2/h; under setting [10], 20.728 ± 3.962 μg/cm^2/h; under setting [11], 16.236 ± 2.805 μg/cm^2/h. Moreover, the “Skin penetration rate of AI compound” value is, setting by setting: under setting [12], 16.126 ± 3.005 μg/cm^2/h; under setting [13], 20.177 ± 3.195 μg/cm^2/h.

Take `O=C(O)CCCCC1CCSS1` (centres unmarked) [lipoic acid]: the “Skin penetration rate of lipoic acid” value is given as 34.012 ± 2.685 μg/cm^2/h (HA = 1/2H2SO4, water); 33.25 ± 2.762 μg/cm^2/h (HA = 1/3H3PO4, water); 34.124 ± 2.912 μg/cm^2/h (HA = 2/3H3PO4, water); 33.513 ± 2.319 μg/cm^2/h (HA = Acetic acid, water); 32.913 ± 4.319 μg/cm^2/h (HA = Benzoic acid, water); 33.452 ± 3.756 μg/cm^2/h (HA = Butyric acid, water). The “Skin penetration rate of lipoic acid” value is, setting by setting: (HA = Citric acid, water) 34.013 ± 2.569 μg/cm^2/h; (HA = H2SO4, water) 33.567 ± 3.125 μg/cm^2/h; (HA = HBr, water) 34.013 ± 3.219 μg/cm^2/h; (HA = HCl, water) 33.613 ± 2.819 μg/cm^2/h; (HA = HF, water) 33.613 ± 3.219 μg/cm^2/h; (HA = HI, water) 33.572 ± 3.129 μg/cm^2/h. In addition, the “Skin penetration rate of lipoic acid” value (HA = Lactic acid, water) is 32.987 ± 4.212 μg/cm^2/h.

Consider Vitamin B12, for which the “Skin penetration rate of Al compound” value amounted to 8.127 ± 3.211 μg/cm^2/h under setting [1]; 8.156 ± 2.875 μg/cm^2/h under setting [2]; 0.016 ± 0.008 μg/cm^2/h under setting [3]; 8.236 ± 3.057 μg/cm^2/h under setting [4]; 0.012 ± 0.006 μg/cm^2/h (Phenylalanine ester: None). Also, the “Skin penetration rate of AI compound” value under setting [5] came out at 0.0011 ± 0.006 μg/cm^2/h; the “Skin penetration rate of AI compound” value under setting [6] was found to be 0.008 ± 0.009 μg/cm^2/h; the “Skin penetration rate of AI compound” value under setting [7] is 0.007 ± 0.011 μg/cm^2/h; the “Skin penetration rate of AI compound” value under setting [8] was 6.816 ± 2.372 μg/cm^2/h; the “Skin penetration rate of AI compound” value under setting [9] was determined as 6.756 ± 2.325 μg/cm^2/h; the “Skin penetration rate of AI compound” value under setting [10] came out at 8.718 ± 3.125 μg/cm^2/h. For the same molecule, the “Skin penetration rate of AI compound” value is, setting by setting: under setting [11], 6.873 ± 3.061 μg/cm^2/h; under setting [12], 6.813 ± 3.111 μg/cm^2/h; under setting [13], 8.897 ± 3.211 μg/cm^2/h.
